Data published in US20040171795A1, “Novel peptides” (priority 2000, published 2004).

How the values were obtained:
[1] = test system: cell (Vero, T24 or A549 of Example 9; not given); experiment: Nucleic acid-introducing ability, luciferase-expressing plasmid (procedure of Example 9); format: cell-based
In short: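 Cells pre-cultured 24 h, then exposed 5 h in opti-MEM to luciferase plasmid at 1 μg/mL with peptide at 1.25, 2.5 or 5 μM, then grown 24 h more at 37 °C. Lysate luciferase counts normalised to Bradford protein (cps/mg protein); highest of the three peptide levels taken as gene-introducing ability.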

Vero cell = experiment: Introduction of FITC-labeled oligonucleotide, fluorescence microscopy; format: cell-based, monkey; conditions: 300 nM FITC-labeled oligonucleotide, 2.5 μM peptide
Method: Vero cell was inoculated in the well of a chamber slide (Lab-Tek II chamber slide, size 4 well, manufactured by NALGEN NUNC) at a rate of 1×10^5 cells/well, and the cells were cultivated in DMEM supplemented with 10% FBS in 5% CO2 atmosphere at 37° C. for 24 hours. After removing the medium, opti-MEM containing 300 nM FITC-labeled oligonucleotide prepared in Example 6 and 2.5 μM of the peptide of SEQ ID NO:1 prepared in Example 1 was added, and the cultivation was continued for 4 hours. The medium was replaced with DMEM supplemented with 10% FBS, and the cultivation was continued in 5% CO2 atmosphere at 37° C. for another 24 hours. After washing the cell with PBS, the cells were fixed by using PBS containing 4% paraformaldehyde, and accumulation of FITC-labeled oligonucleotide in the cell nucleus was confirmed by using a fluorescence microscope (AH-3, manufactured by Olympus). […] On the other hand, accumulation of FITC-labeled oligonucleotide in the cell was not confirmed in the absence of the peptide of SEQ ID NO:1.

plasmid (pUC119) = experiment: Binding ability to plasmid (electrophoresis); conditions: charge ratio (+/−ratio) of 3
Method: The plasmid prepared by the procedure described in Example 7 (pUC119; final concentration, 20 μg/mL) and the peptides prepared by the procedure described in Examples 1 to 3 were mixed in 20 mM Tris HCl buffer (pH=7.2) containing 150 mM NaCl at a charge ratio (+/−ratio) of 0 to 3, and the mixture was allowed to stand at 37° C. for 30 minutes. Electrophoresis was then conducted on 1% agarose gel to thereby determine the binding of the plasmid and the peptide.
The +/−ratio (charge ratio) indicated in FIG. 11 is the ratio of the number (+) of the positively-charged groups in the peptide to the number (−) of negatively-charged groups in the plasmid. As evident in FIG. 11, the amount of plasmid that became bound to the peptide increased with the increase in the charge ratio (+/−ratio), and the plasmid was fully bound to the peptide at a charge ratio (+/−ratio) of 3. The peptides of SEQ ID NO:2 to SEQ ID NO:24 were also found to bind at a charge ratio (+/−ratio) of 3.

21mer oligonucleotide = experiment: Binding ability to oligonucleotide (electrophoresis); conditions: charge ratio (+/−ratio) of 10
Method: The 21mer oligonucleotide prepared by the procedure described in Example 6 (final concentration, 6.7 μM) and the peptide prepared by the procedure described in Examples 1 to 3 were mixed in 20 mM Tris-HCl buffer (pH=7.2) containing 150 mM NaCl at a charge ratio (+/−ratio) of 0 to 10, and the mixture was allowed to stand at 37° C. for 30 minutes. Next, 7.5 μL of this solution was mixed with an equal amount of Tris-borate buffer (pH=8.2) containing 80% formamide, and electrophoresis was conducted on 25% polyacrylamide gel containing 7M urea. After the electrophoresis, the gel was stained with 5% aqueous solution of Stains all (manufactured by Funakoshi) containing 50% formamide and washed with water to thereby determine the binding of the oligonucleotide and the peptide.
The +/−ratio (charge ratio) indicated in FIG. 10 is the ratio of the number (+) of the positively-charged groups in the peptide to the number (−) of negatively-charged groups in the nucleic acid. As evident in FIG. 10, the amount of oligonucleotide that became bound to the peptide increased with the increase in the charge ratio (+/−ratio), and the oligonucleotide was fully bound to the peptide at a charge ratio (+/−ratio) of 10. The peptides of SEQ ID NO:2 to SEQ ID NO:24 were also found to bind at a charge ratio (+/−ratio) of 10.

SEQ ID NO: 1: peptide having the amino acid sequence of SEQ ID NO:1, made by solid phase synthesis (TRYLRIHPRSWVHQIALRLRYLRIHPRSWVHQIALRS; synthetic peptide using an automatic peptide synthesizer)
Nucleic acid-introducing ability ([1]; class of fluorescent count per 1 mg of protein per 1 second, highest of peptide 1.25, 2.5, 5 μM, plasmid 1 μg/mL): 3+ (1,000,000 to less than 10,000,000) | ability of introducing the nucleic acid into a cell ([1]; procedure of Example 9, luciferase-expressing plasmid): found to have the ability of introducing the nucleic acid into a cell | accumulation of FITC-labeled oligonucleotide in the cell nucleus (Vero cell): FITC-labeled oligonucleotide was accumulated in the cell nucleus | binding of plasmid to the peptide (plasmid (pUC119)): fully bound | binding of oligonucleotide to the peptide (21mer oligonucleotide): fully bound
